# Results reported in patent US20220323406A1, “METHODS AND COMPOSITIONS FOR DIFFERENTIATING STEM CELLS” (Massachusetts Institute of Technology, priority 2019, published 2022).
# What was measured:
# [1] = test system: ENR+CD organoids (ISC to Paneth cell differentiation); assay: Secondary (validation) screen: LYZ.S CCh-stimulated lysozyme secretion, 2.5-D 384-well ENR+CD organoids; assay type: cell-based, mouse; details: 6-day ENR+CD, vs ENR+CD+DMSO
# Procedure: (§1) Drugs were tested at a narrowed dose range around each treatment's identified optimal dose from the primary screen (4× below, 2× above and below).
# (§2) High-throughput screening.
# (§3) Secondary lysozyme secretion assay screen. Confirmatory secondary screening with primary hits was performed using the above 384-well plate method. The screen was conducted with 4-plate replicates with a base media of ENR+CD. Media was supplemented with compound at day 0 and day 3 (n=8 well replicates per dose) at four different doses: two-fold above, two-fold below, and four-fold below the optimal final dose for each respective treatment. Additionally, each plate carried a large number of ENR+DMSO or ENR+CD+DMSO (vehicle) control wells (n=100 for ATP, and n=25 for LYZ.NS and LYZ.S) for robust normalization. ATP, non-stimulated lysozyme activity and CCh-stimulated lysozyme activity was again measured and the collected data was again processed in a custom R-script, per primary screen with slight modification. Values were log10 transformed, and a plate-wise FC was calculated for each well based on the median value of ENR+CD+DMSO (vehicle) control wells to normalize plate to plate variability.
# ENR+CD organoids [2] = assay: Primary screen: ATP (CellTiter-Glo 3D, CTG) cell number/viability, 2.5-D 384-well ENR+CD organoids; details: primary screen; for Z.CTG: standard z score;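 as to all read-outs here: compounds given at plating and again on day 3 over a 6-day differentiation from ENR+CV stem-cell-enriched precursors, ATP measured on day 6, plate median as control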
# ENR+CD organoids [3] = assay: Secondary (validation) screen: ATP (CTG) assay, 2.5-D 384-well ENR+CD organoids; assay type: cell-based, mouse; details: 6-day ENR+CD, vs ENR+CD+DMSO
# Procedure: as §1, §2, §3
# [4] = test system: ENR+CD organoids (ISC to Paneth cell differentiation); assay: Primary screen: basal (non-stimulated) lysozyme secretion LYZ.NS, 2.5-D 384-well ENR+CD organoid differentiation; assay type: cell-based, mouse
# From the text: as §2
# [5] = test system: ENR+CD organoids (ISC to Paneth cell differentiation); assay: Primary screen: CCh-stimulated lysozyme secretion LYZ.S, 2.5-D 384-well ENR+CD organoid differentiation; assay type: cell-based, mouse; details: primary screen
# From the text: as §2
# [6] = test system: ENR+CD organoids (ISC to Paneth cell differentiation); assay: Secondary (validation) screen: LYZ.NS basal lysozyme secretion, 2.5-D 384-well ENR+CD organoids; assay type: cell-based, mouse; details: for Dose.FC.LYZ.NS / Z.LYZ.NS / repSSMD.LYZ.NS: 6-day ENR+CD, vs ENR+CD+DMSO
# Procedure: as §1, §2, §3
# [7] = primary screen, standard z score, dose 0.08 uM
# [8] = primary screen, standard z score, dose 0.40 uM
# [9] = primary screen, standard z score, dose 2.00 uM
# [10] = primary screen, standard z score, dose 10.00 uM
# [11] = dose 0.08 uM, FC vs plate median
# [12] = dose 0.40 uM, FC vs plate median
# [13] = dose 2.00 uM, FC vs plate median
# [14] = dose 10.00 uM, FC vs plate median
compound,measurement,setting,value
"CCOc1ccc(Cc2cc([C@@H]3O[C@H](CO)[C@@H](O)[C@H](O)[C@H]3O)ccc2Cl)cc1 [Dapagliflozin, reference compound]",Dose.FC.LYZ.S,[1]; 0.02 uM,−0.019 log2 fold change
same,Dose.FC.LYZ.S,[1]; 0.04 uM,0.069 log2 fold change
same,Dose.FC.LYZ.S,[1]; 0.08 uM,0.069 log2 fold change
same,Dose.FC.LYZ.S,[1]; […],−0.082 log2 fold change
same,Dose.FC.CTG,ENR+CD organoids [2]; dose 0.08 uM,0.410 log2 fold change
same,Dose.FC.CTG,ENR+CD organoids [2]; dose 0.40 uM,0.254 log2 fold change
same,Dose.FC.CTG,ENR+CD organoids [2]; dose 2.00 uM,0.293 log2 fold change
same,Dose.FC.CTG,ENR+CD organoids [2]; dose 10.00 uM,0.301 log2 fold change
same,Dose.FC.CTG,ENR+CD organoids [3]; 0.02 uM,0.085 log2 fold change
same,Dose.FC.CTG,ENR+CD organoids [3]; 0.04 uM,0.174 log2 fold change
same,Dose.FC.CTG,ENR+CD organoids [3]; 0.08 uM,0.149 log2 fold change
same,Dose.FC.CTG,ENR+CD organoids [3]; […],0.035 log2 fold change
same,Dose.FC.LYZ.NS,"[4]; primary screen, dose 0.08 uM",0.170 log2 fold change
same,Dose.FC.LYZ.NS,"[4]; primary screen, dose 0.40 uM",0.097 log2 fold change
same,Dose.FC.LYZ.NS,"[4]; primary screen, dose 2.00 uM",0.159 log2 fold change
same,Dose.FC.LYZ.NS,"[4]; primary screen, dose 10.00 uM",0.136 log2 fold change
same,Z.LYZ.NS,[4]; [7],1.481
same,Z.LYZ.NS,[4]; [8],0.842
same,Z.LYZ.NS,[4]; [9],1.386
same,Z.LYZ.NS,[4]; [10],1.182
same,Dose.FC.LYZ.S,[5]; dose 0.08 uM,0.294 log2 fold change
same,Dose.FC.LYZ.S,[5]; dose 0.40 uM,0.135 log2 fold change
same,Dose.FC.LYZ.S,[5]; dose 2.00 uM,0.166 log2 fold change
same,Dose.FC.LYZ.S,[5]; dose 10.00 uM,0.145 log2 fold change
same,Dose.FC.LYZ.NS,[6]; 0.02 uM,0.022 log2 fold change
same,Dose.FC.LYZ.NS,[6]; 0.04 uM,0.150 log2 fold change
same,Dose.FC.LYZ.NS,[6]; 0.08 uM,0.058 log2 fold change
same,Dose.FC.LYZ.NS,[6]; […],−0.060 log2 fold change
"CC(C)(C)NC(=O)[C@H]1CC[C@H]2[C@@H]3CC[C@H]4NC(=O)C=C[C@]4(C)[C@H]3CC[C@]12C [Finasteride, reference compound]",Dose.FC.LYZ.S,[1]; 0.02 uM,−0.019 log2 fold change
same,Dose.FC.LYZ.S,[1]; 0.04 uM,−0.260 log2 fold change
same,Dose.FC.LYZ.S,[1]; 0.08 uM,−0.242 log2 fold change
same,Dose.FC.LYZ.S,[1]; […],−0.253 log2 fold change
same,Dose.FC.CTG,ENR+CD organoids [2]; dose 0.08 uM,0.151 log2 fold change
same,Dose.FC.CTG,ENR+CD organoids [2]; dose 0.40 uM,−0.038 log2 fold change
same,Dose.FC.CTG,ENR+CD organoids [2]; dose 2.00 uM,0.073 log2 fold change
same,Dose.FC.CTG,ENR+CD organoids [2]; dose 10.00 uM,−0.041 log2 fold change
same,Dose.FC.CTG,ENR+CD organoids [3]; 0.02 uM,0.066 log2 fold change
same,Dose.FC.CTG,ENR+CD organoids [3]; 0.04 uM,−0.180 log2 fold change
same,Dose.FC.CTG,ENR+CD organoids [3]; 0.08 uM,−0.011 log2 fold change
same,Dose.FC.CTG,ENR+CD organoids [3]; […],−0.065 log2 fold change
same,primary screen hit call (SSMD and z-scored FC cutoffs in both LYZ assays),"[4]; LYZ.NS and LYZ.S; 0.08-10 uM, 6 days ENR+CD",sole hit in their respective pathway
same,Dose.FC.LYZ.NS,"[4]; primary screen, dose 0.08 uM",0.205 log2 fold change
same,Dose.FC.LYZ.NS,"[4]; primary screen, dose 0.40 uM",0.213 log2 fold change
same,Dose.FC.LYZ.NS,"[4]; primary screen, dose 2.00 uM",0.142 log2 fold change
same,Dose.FC.LYZ.NS,"[4]; primary screen, dose 10.00 uM",0.067 log2 fold change
same,Z.LYZ.NS,[4]; [7],1.781
same,Z.LYZ.NS,[4]; [8],1.852
same,Z.LYZ.NS,[4]; [9],1.236
same,Z.LYZ.NS,[4]; [10],0.587
same,Dose.FC.LYZ.S,[5]; dose 0.08 uM,0.199 log2 fold change
same,Dose.FC.LYZ.S,[5]; dose 0.40 uM,0.211 log2 fold change
same,Dose.FC.LYZ.S,[5]; dose 2.00 uM,0.156 log2 fold change
same,Dose.FC.LYZ.S,[5]; dose 10.00 uM,0.056 log2 fold change
same,Dose.FC.LYZ.NS,[6]; 0.02 uM,0.056 log2 fold change
same,Dose.FC.LYZ.NS,[6]; 0.04 uM,−0.189 log2 fold change
same,Dose.FC.LYZ.NS,[6]; 0.08 uM,−0.191 log2 fold change
same,Dose.FC.LYZ.NS,[6]; […],−0.203 log2 fold change
Cc1[nH]c(/C=C2\C(=O)Nc3ccc(S(=O)(=O)Cc4c(Cl)cccc4Cl)cc32)c(C)c1C(=O)N1CCC[C@@H]1CN1CCCC1 [PHA-665752],Dose.FC.LYZ.S,[1]; 0.10 uM,0.133 log2 fold change
same,Z.LYZ.S,[1]; 0.10 uM,1.019
same,repSSMD.LYZ.S,[1]; 0.10 uM,1.586
same,Dose.FC.LYZ.S,[1]; 0.20 uM,−0.089 log2 fold change
same,Z.LYZ.S,[1]; 0.20 uM,−0.680
same,repSSMD.LYZ.S,[1]; 0.20 uM,−1.201
same,Dose.FC.LYZ.S,[1]; 0.40 uM,0.076 log2 fold change
same,Z.LYZ.S,[1]; 0.40 uM,0.585
same,repSSMD.LYZ.S,[1]; 0.40 uM,0.906
same,Dose.FC.LYZ.S,[1]; 0.80 uM,0.048 log2 fold change
same,Z.LYZ.S,[1]; 0.80 uM,0.365
same,repSSMD.LYZ.S,[1]; 0.80 uM,0.542
same,Z.CTG,ENR+CD organoids [2]; dose 0.08 uM,1.126
same,Z.CTG,ENR+CD organoids [2]; dose 0.40 uM,1.482
same,Z.CTG,ENR+CD organoids [2]; dose 2.00 uM,1.339
same,Z.CTG,ENR+CD organoids [2]; dose 10.00 uM,0.057
same,Dose.FC.CTG,ENR+CD organoids [2]; [11],0.471 log2 fold change
same,Dose.FC.CTG,ENR+CD organoids [2]; [12],0.620 log2 fold change
same,Dose.FC.CTG,ENR+CD organoids [2]; [13],0.561 log2 fold change
same,Dose.FC.CTG,ENR+CD organoids [2]; [14],0.024 log2 fold change
same,Dose.FC.CTG,ENR+CD organoids [3]; 0.10 uM,0.100 log2 fold change
same,Z.CTG,ENR+CD organoids [3]; 0.10 uM,0.898
same,repSSMD.CTG,ENR+CD organoids [3]; 0.10 uM,0.755
same,Dose.FC.CTG,ENR+CD organoids [3]; 0.20 uM,−0.032 log2 fold change
same,Z.CTG,ENR+CD organoids [3]; 0.20 uM,−0.288
same,repSSMD.CTG,ENR+CD organoids [3]; 0.20 uM,−0.244
same,Dose.FC.CTG,ENR+CD organoids [3]; 0.40 uM,0.303 log2 fold change
same,Z.CTG,ENR+CD organoids [3]; 0.40 uM,2.735
same,repSSMD.CTG,ENR+CD organoids [3]; 0.40 uM,1.415
same,Dose.FC.CTG,ENR+CD organoids [3]; 0.80 uM,0.185 log2 fold change
same,Z.CTG,ENR+CD organoids [3]; 0.80 uM,1.664
same,repSSMD.CTG,ENR+CD organoids [3]; 0.80 uM,1.023
same,Z.LYZ.NS,"[4]; primary screen, dose 0.08 uM, standard z score",1.586
same,Z.LYZ.NS,"[4]; primary screen, dose 0.40 uM, standard z score",2.368
same,Z.LYZ.NS,"[4]; primary screen, dose 2.00 uM, standard z score",1.591
same,Z.LYZ.NS,"[4]; primary screen, dose 10.00 uM, standard z score",−0.931
same,Dose.FC.LYZ.NS,[4]; primary screen; dose 0.08 uM; FC vs plate median,0.182 log2 fold change
same,Dose.FC.LYZ.NS,[4]; primary screen; dose 0.40 uM; FC vs plate median,0.272 log2 fold change
same,Dose.FC.LYZ.NS,[4]; primary screen; dose 2.00 uM; FC vs plate median,0.183 log2 fold change
same,Dose.FC.LYZ.NS,[4]; primary screen; dose 10.00 uM; FC vs plate median,−0.107 log2 fold change
same,Dose.FC.LYZ.S,[5]; [11],0.163 log2 fold change
same,Dose.FC.LYZ.S,[5]; [12],0.373 log2 fold change
same,Dose.FC.LYZ.S,[5]; [13],0.143 log2 fold change
same,Dose.FC.LYZ.S,[5]; [14],−0.165 log2 fold change
same,Dose.FC.LYZ.NS,[6]; 0.10 uM,0.210 log2 fold change
same,Z.LYZ.NS,[6]; 0.10 uM,1.675
same,repSSMD.LYZ.NS,[6]; 0.10 uM,2.400
same,Dose.FC.LYZ.NS,[6]; 0.20 uM,−0.027 log2 fold change
same,Z.LYZ.NS,[6]; 0.20 uM,−0.219
same,repSSMD.LYZ.NS,[6]; 0.20 uM,−0.350
same,Dose.FC.LYZ.NS,[6]; 0.40 uM,0.099 log2 fold change
same,Z.LYZ.NS,[6]; 0.40 uM,0.789
same,repSSMD.LYZ.NS,[6]; 0.40 uM,0.942
same,Dose.FC.LYZ.NS,[6]; 0.80 uM,0.090 log2 fold change
same,Z.LYZ.NS,[6]; 0.80 uM,0.722
same,repSSMD.LYZ.NS,[6]; 0.80 uM,1.142
same,validated doses in secondary screen (SSMD above cutoff in both LYZ assays),[6]; LYZ.NS and LYZ.S,multiple validated doses
